Laboratory results from the supplement of paper PMC10331698.
± gives the standard deviation of the averaged measurements.

Columns and labels:
Assay in all cases: level (log10 ratio to DMSO vehicle control); higher = higher biomarker level / cell amount than vehicle control
[1] = compound: C=C(C)C(=O)OCCC(F)(F)C(F)(F)C(F)(F)C(F)(F)C(F)(F)C(F)(F)F [6:2 Fluorotelomer methacrylate]; details: in DMSO
Experimental: (§1)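 BioMAP Diversity Plus panel of 12 human primary cell co-culture systems (3C, 4H, LPS, SAg, BT, BF4T, BE3C, CASM3C, HDF3CGF, KF3CT, MyoF, Mphg). Compounds were added 1 h before stimulation and left for 24 h (MyoF 48 h; BT 72 h for soluble read-outs or 6 d for IgG). Biomarkers were read by ELISA, cytotoxicity by SRB, PBMC viability and proliferation by Alamar Blue. Each well value was divided by the mean of 8 DMSO control wells on the same plate and log10 transformed; duplicate blinded samples were tested at 4 concentrations.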

[2] = compound: C=CC(=O)OCC(F)(F)C(F)(F)C(F)(F)COC(=O)C=C [1H,1H,5H,5H-Perfluoro-1,5-pentanediol diacrylate]; details: 6700 nM; in DMSO
Experimental: as §1

[3] = compound: OCC(F)(F)C(F)(F)C(F)(F)CO [Hexafluoroamylene glycol]; details: in DMSO
Experimental: as §1

[4] = compound: NC(=O)C(F)(F)C(F)(F)C(F)(F)C(F)(F)C(N)=O [Octafluoroadipamide]; details: in DMSO
Experimental: as §1

[5] = compound: COC(=O)C(F)(F)C(F)(F)OC(F)(C(F)(F)F)C(F)(F)OC(F)=C(F)F [Methyl perfluoro(3-(1-ethenyloxypropan-2-yloxy)propanoate)]; details: in DMSO
Experimental: as §1

[6] = compound: O=C(O)C=CC(F)(C(F)(F)F)C(F)(F)F [3-(Perfluoroisopropyl)-2-propenoic acid]; details: in DMSO
Experimental: as §1

[7] = compound: FC(F)(F)C(F)(F)C(F)(F)C(F)(F)C(F)(F)C(F)(F)C(F)(F)I [1-Iodopentadecafluoroheptane]; details: in DMSO
Experimental: as §1

[8] = compound: FC(F)(F)C(F)(F)C(F)(F)C(F)(F)C(F)(F)C(F)(F)CC1CO1 [3-(Perfluorohexyl)-1,2-epoxypropane]; details: in DMSO
Experimental: as §1

Test System | level (log10) ([1]; 6700 nM) | level (log10) ([1]; 20000 nM) | level (log10) ([1]; 60000 nM) | level (log10) [2] | level (log10) ([3]; 6700 nM) | level (log10) ([3]; 20000 nM) | level (log10) ([3]; 60000 nM) | level (log10) ([4]; 6700 nM) | level (log10) ([4]; 20000 nM) | level (log10) ([4]; 60000 nM) | level (log10) ([5]; 6700 nM) | level (log10) ([5]; 20000 nM) | level (log10) ([6]; 6700 nM) | level (log10) ([6]; 20000 nM) | level (log10) ([6]; 60000 nM) | level (log10) ([7]; 6700 nM) | level (log10) ([7]; 20000 nM) | level (log10) ([8]; 6700 nM) | level (log10) ([8]; 20000 nM) | level (log10) ([8]; 60000 nM)
BF4T:CD106/VCAM-1 | 0.008 ± 0.079 | 0.039 | -0.0215 ± 0.028 | -0.0685 ± 0.026 | -0.0015 ± 0.023 | 0.0045 ± 0.023 | 0.034 ± 0.025 | -0.0265 ± 0.021 | -0.0215 ± 0.016 | 0.0155 ± 0.061 | -0.007 ± 0.071 | -0.091 ± 0.025 | -0.0095 ± 0.04 | -0.0275 ± 0.025 | 0.0225 ± 0.019 | -0.005 ± 0.011 | -0.031 ± 0.0028 | 0.0195 ± 0.0021 | 0.017 ± 0.0028 | 0.0275 ± 0.028
LPS:SRB | -0.003 ± 0.0042 | -0.0035 ± 0.0064 | -0.0025 ± 0.00071 | -0.02 ± 0.0042 | -0.004 ± 0.0028 | -0.0095 ± 0.015 | 0.002 ± 0.018 | -0.003 ± 0.011 | -0.0075 ± 0.0092 | 0.0015 ± 0.0035 | -0.012 | -0.0085 ± 0.0078 | -0.0015 ± 0.018 | -0.011 ± 0.016 | -0.0115 ± 0.028 | 0.0035 ± 0.0064 | 0.003 ± 0.0042 | -0.0045 ± 0.0035 | -0.003 | -0.002 ± 0.0057
LPS:CD69 | -0.0355 ± 0.019 | -0.0095 ± 0.026 | 0.0175 ± 0.053 | -0.0365 ± 0.036 | -0.028 ± 0.085 | -0.038 ± 0.03 | -0.041 ± 0.067 | 0.011 ± 0.1 | 0.033 ± 0.052 | 0.082 ± 0.024 | -0.0435 ± 0.0078 | -0.053 ± 0.013 | -0.0365 ± 0.025 | -0.0375 ± 0.00071 | -0.0255 ± 0.023 | -0.0105 ± 0.033 | 0.037 ± 0.0057 | -0.024 ± 0.013 | -0.0225 ± 0.015 | -0.0195 ± 0.0078
BF4T:IL-1alpha | -0.025 ± 0.041 | -0.0245 ± 0.025 | -0.0125 ± 0.018 | 0.0055 ± 0.036 | -0.001 ± 0.014 | -0.0175 ± 0.0035 | 0.0075 ± 0.029 | 0.007 ± 0.0071 | -0.005 ± 0.0071 | 0.0215 ± 0.018 | -0.002 ± 0.0014 | 0.0105 ± 0.023 | -0.002 ± 0.021 | 0.0065 ± 0.011 | 0.012 ± 0.0057 | -0.0035 ± 0.0035 | 0.003 ± 0.0014 | 0.003 ± 0.0071 | -0.0135 ± 0.005 | 0.013 ± 0.028
BF4T:Keratin 8/18 | -0.0305 ± 0.019 | -0.0345 ± 0.044 | -0.054 ± 0.013 | 0.0095 ± 0.0092 | 0.0045 ± 0.018 | -0.0075 ± 0.0092 | 0.0125 ± 0.013 | -0.0025 ± 0.0092 | -0.004 ± 0.0014 | 0.017 ± 0.033 | 0.029 ± 0.02 | 0.015 ± 0.042 | -0.018 ± 0.028 | -0.0135 ± 0.0021 | -0.0035 ± 0.044 | -0.031 ± 0.021 | -0.054 ± 0.0028 | -0.0045 ± 0.03 | -0.014 ± 0.011 | 0.015 ± 0.037
BF4T:SRB | 0.002 ± 0.0071 | -0.003 ± 0.0071 | -0.0035 ± 0.012 | -0.005 ± 0.0042 | 0.0025 ± 0.018 | 0.002 ± 0.0085 | 0 ± 0.0057 | -0.006 ± 0.0071 | -0.002 ± 0.0028 | 0.001 ± 0.0071 | -0.005 ± 0.016 | 0.0035 ± 0.026 | -0.008 ± 0.011 | -0.008 ± 0.0099 | 0.006 ± 0.018 | -0.0085 ± 0.0092 | -0.008 ± 0.0014 | -0.008 ± 0.011 | -0.0105 ± 0.0078 | 0.0015 ± 0.019
BT:sIL-2 | 0.0005 ± 0.012 | -0.0195 ± 0.053 | -0.036 ± 0.025 | -0.651 ± 0.08 | 0.0335 ± 0.022 | 0.0145 ± 0.054 | 0.0365 ± 0.056 | 0.137 ± 0.073 | 0.116 ± 0.061 | 0.126 ± 0.027 | -0.0335 ± 0.018 | -0.059 ± 0.038 | 0.029 ± 0.058 | -0.049 ± 0.12 | 0.001 ± 0.0085 | -0.113 ± 0.07 | -0.017 ± 0.081 | -0.0165 ± 0.049 | 0.0215 ± 0.0035 | 0.007
BF4T:CXCL8/IL-8 | 0.032 ± 0.061 | 0.028 ± 0.037 | 0.0435 ± 0.033 | -0.0315 ± 0.037 | -0.018 | -0.002 ± 0.0014 | 0.0175 ± 0.033 | -0.0185 ± 0.0064 | -0.022 ± 0.011 | -0.003 ± 0.044 | 0.0395 ± 0.016 | 0.095 ± 0.0099 | 0.0055 ± 0.012 | -0.0015 ± 0.0064 | 0.001 ± 0.021 | 0.0515 ± 0.079 | 0.0425 ± 0.044 | 0.013 ± 0.02 | -0.02 ± 0.028 | 0.0075 ± 0.0064
BE3C:CD87/uPAR | -0.047 ± 0.027 | -0.0335 ± 0.019 | -0.0305 ± 0.028 | 0.0195 ± 0.0064 | -0.0205 ± 0.011 | -0.016 ± 0.037 | 0.0025 ± 0.022 | -0.0295 ± 0.043 | -0.044 ± 0.071 | -0.0195 ± 0.093 | 0.038 ± 0.038 | 0.05 ± 0.041 | 0.005 ± 0.0085 | 0.002 ± 0.045 | 0.052 ± 0.038 | 0.001 ± 0.034 | 0.008 ± 0.011 | 0.0085 ± 0.029 | 0.032 ± 0.037 | 0.06 ± 0.0028
SAg:SRB | 0 ± 0.0057 | -0.003 ± 0.0042 | -0.005 ± 0.0071 | -0.0015 ± 0.012 | -0.0015 ± 0.00071 | -0.004 ± 0.0028 | -0.0005 ± 0.019 | -0.011 ± 0.014 | -0.0065 ± 0.022 | -0.0025 ± 0.0064 | 0.0035 ± 0.015 | 0.006 ± 0.0057 | -0.001 ± 0.0042 | -0.007 ± 0.025 | -0.0065 ± 0.028 | -0.007 ± 0.0042 | 0.0025 ± 0.0021 | -0.007 ± 0.0099 | -0.012 ± 0.0042 | 0.006 ± 0.016
LPS:CXCL8/IL-8 | 0.006 ± 0.014 | 0.023 ± 0.011 | 0.0455 ± 0.015 | -0.0285 ± 0.00071 | 0.025 ± 0.076 | 0.026 ± 0.0057 | 0.0885 ± 0.037 | -0.0035 ± 0.033 | 0.007 ± 0.0085 | 0.01 ± 0.013 | 0.019 ± 0.0042 | 0.0355 ± 0.019 | -0.0055 ± 0.019 | -0.0205 ± 0.023 | -0.0015 ± 0.019 | 0.026 ± 0.055 | 0.0325 ± 0.005 | -0.0205 ± 0.011 | -0.0135 ± 0.021 | 0.0015 ± 0.035
SAg:Proliferation | -0.027 ± 0.034 | -0.0435 ± 0.042 | -0.0375 ± 0.03 | -0.421 ± 0.035 | -0.024 ± 0.041 | -0.0395 ± 0.013 | -0.039 ± 0.0042 | 0.022 ± 0.035 | -0.0255 ± 0.005 | 0.033 ± 0.0099 | -0.003 ± 0.018 | 0.0525 ± 0.057 | 0.009 ± 0.016 | -0.008 ± 0.037 | 0.008 ± 0.04 | 0.0055 ± 0.043 | -0.0105 ± 0.026 | 0.013 ± 0.014 | -0.0105 ± 0.019 | 0.013 ± 0.051
